From patent US6713504B2, “Antifungal molecule 2-(3,4-dimethyl-2,5-dihydro-1H-pyrrol-2-yl)-1-methylethyl pentanoate” (Council of Scientific & Industrial Research, priority 2002, dated 2004)

Key:
A. fumigatus = experiment: Disc diffusion assay; format: cell-based; conditions: concentration developing zone of inhibition of 6.0-mm diameter
Description: (§1) Pathogenic strains of fungi were obtained from the Mycology Department of Vallabhbhai Patel Chest Institute, Delhi. All the strains were grown on Sabouraud dextrose agar at 37° C. The conidia form these cultures were harvested and suspended in Sabouraud maltose broth. The number of conidia was counted using haemocytometer and their number in the suspension was adjusted to as per need of the experiment.
(§2) The disc diffusion test was performed as per described in the section of details of invention. Amphotericin B 1.25 μg/disc was used in assay as positive control standard drug. Additional discs impregnated with equivalent amount of solvent were also used in the assay as negative controls (FIG. 5).
The potency of the compound was determined with the help of standard curve constructed using amphotericin B as standard drug against A. fumigatus. Standard curve was prepared according to method given in the Indian Pharmacopoeia. The corrected values of diameter of zone of inhibition along with lowest and highest values were determined. These values were plotted on semilog paper to prepare standard curve. The value of diameter of zone of inhibition obtained for compound was put into the standard curve and corresponding dose producing the effect equivalent to amphotericin B was determined to find out the potency of the compound (FIG. 6).

A. flavus = experiment: Disc diffusion assay; format: cell-based; conditions: concentration developing zone of inhibition of 6.0-mm diameter
Description: as §1, §2

A. niger = experiment: Disc diffusion assay; format: cell-based
Description: as §1, §2

[1] = In vitro cell cytotoxicity by MTT assay; format: cell-based; conditions: mouse; 1250.0 μg/ml; RAW cells; MTT; read-out: percent cytotoxicity
Description: (§3) The stock culture of RAW cells was obtained from National Facility for Cell and Tissue Culture, Pune.
(§4) The stock solution of the compound was prepared by dissolving 2.5 mg of the purified compound in minimum amount of DMSO and then diluted with double distilled water to make the final volume 1.0-ml.
(§5) The cells were harvested at the log phase of growth confluency from the flask. The homogeneous suspension of cells was prepared in 2.0 ml of culture medium. The number of cells in the suspension was counted using a hemocytometer and the cell suspension was diluted in such a way so as to obtain 5×10^7 viable cells per ml. The viability of the cells was checked with trypan blue dye exclusion test. The cytotoxicity assay was performed in 96 wells flat bottom tissue culture plates (Nunc Nunclon). The cells (5×10^6) in 100.0 μl volume were seeded into each well. The plate was incubated at 37° C. in atmosphere of 5% (v/v) CO2 for 8 h. The wells were examined microscopically for the formation of monolayer of the cells. […] In +ve control wells, a known cytotoxic protein obtained from A. fumigatus, was used. The ZnSO4 (8.0 mg/L) was used as another +ve toxic material in another set of wells. In negative control wells equivalent amount of the solvent was used. The duplicate wells were used for each concentration of the test compound. The plates were incubated at 37° C. in 5% (v/v) CO2 incubator overnight (12 h). The medium along with floating dead cells from the wells was removed by inverting the plate. Thus, only the live cells sticking to the surface of plate were left in the wells. […] After adding the dye to the wells, the plate was kept at 37° C. in 5% CO2 for 1 h. The tissue culture plate was removed from the incubator and all the dye was aspirated. Only live cells took up the dye. The cells were lysed by adding 100.0 μl of isopropanol-HCl to the wells. After lysis of the cells, the plates were read at 540 nm using plate reader (Spectra Max 190, Molecular Device).
(§6) The toxicity of the compound was expressed as percentage with respect to that obtained in −ve control sample. The percent cytotoxicity was calculated using the formula given below. [formula]
(§7) The percent cytotoxicity was plotted against log concentration of the compound to find out concentration which was cytotoxic to 50% of the cells (CT50).

RAW cells = experiment: In vitro cell cytotoxicity by MTT assay; format: cell-based
Description: as §3, §4, §5, §6, §7

A. fumigatus infection = experiment: Quantification of colony forming units in organs of infected mice; format: in vivo, Balb/C mice
Text: In vivo efficacy of the compound against A. fumigatus infection was studied in the Balb/C mice of 6-8 weak of age of either sex, weighing 15-20 g each. The mice model of aspergillosis described by Dixon et al (1989), was used to study the effects of compound on in vivo infection of A. fumigatus.
The animals were housed in the micro-barrier cages on sterile bedding and fed ad libitum water and food. The mice were divided into 6 groups and each group contained 8-10 animals. The mice were infected experimentally with A. fumigatus. Three days prior to infection with conidia, mice were injected subcutaneously with 3 doses (250.0 mg/kg/day) of cortisone acetate in 400.0 μl of PBS. On the infection day, each mouse received 2×10^7 conidia by nasal instillation of a single droplet of conidial suspension. The animals of this model developed invasive aspergillosis and all the infected animals died within 4-6 days.
The mice were kept under constant watch and those getting moribund, dying or survived up to 10 days were sacrificed. The autopsy was performed on the mice who had died to remove their organs for quantification of colony forming units (CFU). The lungs, livers and kidneys of the mice were removed aseptically, placed in sterile PBS (pH 7.2) and homogenized with teflon pestle mortar. The CFU in the animals were determined by plating 10 fold dilutions of organ homogenates on Sabouraud dextrose agar containing 0.05% triton X-100. The triton X-100 limited the colony size and thus greatly facilitated colony counting (Frosco, 1992). After an incubation for 48 h at 37° C., colonies were counted and results were expressed as CFU per organ.
The fungal burden in the organs of the animals, which died or became moribund during study or those survived up to 10th day, was determined. The lungs, livers and kidneys of the animals were isolated, homogenized and the homogenate was used to culture the pathogen on Sabouraud dextrose agar plates. The colonies of the fungus were counted and expressed as colony forming units (CFU)/organ.

For `CCCCC(=O)OC(C)CC1NCC(C)=C1C` (stereo not shown) [PC-1, 2-(3,4-dimethyl-2,5-dihydro-1H-pyrrol-2-yl)-1-methylethyl pentanoate], which “MIC by disc diffusion assay” value (A. fumigatus) is on record?
The value was 5 μg/disc.

And the “MIC by disc diffusion assay” value (A. fumigatus; listed as antifungal lead molecule)?
Its value is 5.0 μg/disc.

What about the “MIC by disc diffusion assay” value (A. flavus) of the same molecule?
The value was 5 μg/disc.

What about the zone of inhibition at 20 µg/disc (A. niger; Aspergillus niger, 20.0 μg/disc, 48 hrs, read-out: Diameter of zone of inhibition) of the same molecule?
The zone of inhibition at 20 µg/disc was 9.4 mm.

What about the “MIC by disc diffusion assay” value (A. niger; concentration developing zone of inhibition of 6.0-mm diameter) of the same molecule?
The value was 5 μg/disc.

And the cytotoxicity at 12 h, 1250 μg/ml [1]?
The cytotoxicity at 12 h, 1250 μg/ml was 76%.

What about the “concentration completely non-toxic to the cells” value (RAW cells; RAW cells, MTT) of the same molecule?
Its value is “up to 312.5 μg/ml”.

What about the “CT50 (dose cytotoxic to 50% of the cells)” value (RAW cells; RAW cells, MTT, 12 h) of the same molecule?
The value was 889.2 µg/mL.

And the “less cytotoxic than the standard antifungal drug Amphotericin B” value (RAW cells; comparison with Amphotericin B)?
The value was 57.8 times.

What about the “effect on colony counts in lung as compared to controls” value (A. fumigatus infection; 400 mg/kg body weight, p<0.001) of the same molecule?
Its value is “reduced the colony counts significantly”.

What about the “effect on number of CFUs in kidneys” value (A. fumigatus infection; 100.0 to 400.0 mg/kg body weight) of the same molecule?
Its value is “significant reduction”.

What about the “effect on the CFUs in the lung tissue” value (A. fumigatus infection; doses of 25.0 and 50.0 mg/kg body weight) of the same molecule?
The value was “did not have any effect”.

What about the “effect on CFUs in liver” value (A. fumigatus infection; liver) of the same molecule?
The value was “very less effect”.
